Experiments:
[1] = cited from earlier work
[2] = pig, in vivo
[3] = Blood concentrations of doxycycline hyclate after deployment of drug delivery formulations in pigs (Example 1); format: in vivo; details: drug/vinylpolysiloxane pills (32% drug loading) deployed in three Yorkshire pigs
Protocol: The model drug, doxycycline hyclate, is added to the Zhermack Elite Double 22 base and catalyst to obtain a final drug loading percentage of 32%. Each pill has around 30 mg of drug (FIG. 1B). Drug crystals less than 75 μm can be visualized on the surface of the pill using scanning electron microscope (FIG. 1C). A series of pills with 0.5 mm holes inside them can be strung on a retention frame such as nitinol superelastic wire and encased in a Tygon tubing with stainless steel beads and Nusil glue at the ends of the article (FIG. 1D). Other drugs such as moxifloxacin, isoniazid, pyrazinamide, and ethambutol can also be mixed with the Zhermack Elite Double 22 base and catalyst at drug loading percentages greater than 25 wt %. Stability of the drug form can be evaluated using proton nuclear magnetic resonance spectroscopy after extraction of the drug from the matrix in water.
The pills were created by first mixing the drug into the Zhermack Elite Double 22 base and catalyst. […] Drug loading percentages were determined relative to the finally cured silicone mixture weight. […]
After deployment of the drug delivery formulations in three Yorkshire pigs in a large animal model, concentrations of doxycycline hyclate in the blood were measured, and drug release is sustained for at least 7 days with non-zero values (FIG. 3B).

duration of detectable serum concentrations [2]	duration drug was detectable in serum [2]	time after which no drug was detectable in serum [2] [days]	time to detectable serum concentrations [2] [min]	drug release sustained with non-zero concentrations in the blood [3]	Molecule	stability in acid [1]
a week	–	–	–	–	CO[C@H]1/C=C/O[C@@]2(C)Oc3c(C)c(O)c4c(O)c(c(/C=N/N5CCN(C)CC5)c(O)c4c3C2=O)NC(=O)/C(C)=C\C=C\[C@H](C)[C@H](O)[C@@H](C)[C@@H](O)[C@@H](C)[C@H](OC(C)=O)[C@@H]1C [rifampicin]	rapidly degrades in acid
–	at least 28 days	3	≤ 15	at least 7 days	doxycycline hyclate	–
